Measurements reported in patent US20260273084A1, “ANTIBODY-DRUG CONJUGATES” (ADC THERAPEUTICS SA, priority 2023, published 2026).
Numbered stars: 1 amine (or outer) side, 2 acyl side, 3 side chain; on linkers, the order of the positions; unused ones are H or OH. Square brackets hold non-standard residues; d marks the D form. Peptide text beside a SMILES is read from it. * marks the point of attachment. Exatecan = CC[C@@]1(O)C(=O)OCc2c1cc1n(c2=O)Cc2c-1nc1cc(F)c(C)c3c1c2[C@@H](N*)CC3; Propanoyl(3-maleimido) = O=C1C=CC(=O)N1CCC(=O)*; PABC = O=C(OCc1ccc(N[*:1])cc1)[*:2]

Experiment: Aggregation studies: % monomer by SEC after conjugation to test monoclonal antibody
Format: physicochemical
Details: 95% monomer or greater assessed as low aggregation
Method: Aggregation is a process in which molecules self-associate with each other. In the context of the present invention, aggregation levels are assessed during the conjugation of a linker construct to an antibody. During conjugation, aggregation is quantified in terms of percentage monomer content. High percentage monomer values typically equate to a lower degree of aggregation. Percentage monomer values of 93% or 95% or higher typically mean negligible levels of aggregation or none, whereas values below this threshold typically translate to higher levels of aggregation.
2 mg of test monoclonal antibody at 8.87 mg/mL was pH adjusted with 5% 0.5 M Tris, 0.025 M EDTA, pH 8.5 and reduced with 2.3 mol. eq TCEP and then conjugated with 6 mol. eq drug linker. […] Percentage monomer values of 95% or greater are assessed as low aggregation.
Aggregation levels were assessed during the conjugation to the test antibody.
During conjugation, we are ideally targeting a monomer content or percentage monomer of 95% or above. Low percentage monomer values usually translate to a higher degree of aggregation. One could therefore agree that percentage monomer values of 95% or higher mean very low levels of aggregation or none, whereas values below this threshold often translate to higher levels of aggregation.

## CC[C@@]1(O)C(=O)OCc2c1cc1n(c2=O)Cc2c-1nc1cc(F)c(C)c3c1c2[C@@H](NC(=O)OCc1ccc(NC(=O)[C@H](C)NC(=O)[C@@H](NC(=O)CNC(=O)CNC(=O)CNC(=O)CNC(=O)CNC(=O)CCN2C(=O)C=CC2=O)C(C)C)cc1)CC3 [Mal-Gly5-VA-PABC-Exatecan] ({Propanoyl(3-maleimido)}-GGGGGVA[PABC]-Exatecan)
  Aggregation (grade in words): None
